Measured values: the supplement of paper PMC11061612

Legend:
C32 (Melanoma) [1] = assay: Bliss excess, mean over the matrix (fraction); higher = more synergy
In short: (§1)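 After 24 hours at 37°C and 5% CO2 in 1536-well plates, cells in DMEM/F12 or RPMI plus 10% FBS received two-drug dose matrices for 72 hours. Viability came from CellTiter-Glo 2.0 luminescence and was scaled as inhibition, anchored at 0 by vehicle wells and at 1 by blank wells. Combination Emax is taken as the second-highest inhibition in the matrix, and Bliss excess as the observed combination effect less EA + EB − EA·EB, with EA and EB the single-agent effects.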

C32 (Melanoma) [2] = assay: combination Emax (second highest fraction inhibited in the dose matrix, 72 h); higher = more inhibition; extreme values may be limits of the assay
In short: as §1

MG-63 (Osteosarcoma) = assay: as above
In short: as §1

[3] = system: NCI-H1048 (Small Cell Lung Carcinoma); assay: as above
In short: as §1

[4] = system: MDA-MB-175-VII (Breast Carcinoma); assay: as above
In short: as §1

[5] = system: SNU-1 (Gastric Carcinoma); assay: as above
In short: as §1

[6] = system: OVKATE (Ovarian Carcinoma); assay: as above
In short: as §1

[7] = system: NCI-H1648 (Lung Adenocarcinoma); assay: as above
In short: as §1

[8] = system: NCI-H1435 (Non-Small Cell Lung Carcinoma); assay: as above
In short: as §1

HT-144 (Melanoma) = assay: as above
In short: as §1

[9] = system: NCI-H2170 (Squamous Cell Lung Carcinoma); assay: as above
In short: as §1

[10] = system: SUP-HD1 (Hodgkin's Lymphoma); assay: as above
In short: as §1

[11] = system: RS4-11 (B-Lymphoblastic Leukemia); assay: as above
In short: as §1

[12] = system: SBC-5 (Small Cell Lung Carcinoma); assay: as above
In short: as §1

[13] = system: SCC90 (Head and Neck Carcinoma); assay: as above
In short: as §1

[14] = system: HT-1197 (Bladder Carcinoma); assay: as above
In short: as §1

[15] = system: BT-474 (Breast Carcinoma); assay: as above
In short: as §1

[16] = system: HT-3 (Cervical Carcinoma); assay: as above
In short: as §1

A375 (Melanoma) = assay: as above
In short: as §1

[17] = system: Daudi (Burkitt's Lymphoma); assay: as above
In short: as §1
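Wherever Bliss excess, mean over the matrix is given: after 72 h of two-drug dosing.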

| SMILES | Bliss excess (C32 (Melanoma) [1]) | combination Emax (C32 (Melanoma) [2]) | combination Emax (MG-63 (Osteosarcoma)) | combination Emax [3] | combination Emax [4] | combination Emax [5] | combination Emax [6] | combination Emax [7] | combination Emax [8] | combination Emax (HT-144 (Melanoma)) | combination Emax [9] | combination Emax [10] | combination Emax [11] | combination Emax [12] | combination Emax [13] | combination Emax [14] | combination Emax [15] | combination Emax [16] | combination Emax (A375 (Melanoma)) | combination Emax [17] |
| --- | --- | --- | --- | --- | --- | --- | --- | --- | --- | --- | --- | --- | --- | --- | --- | --- | --- | --- | --- | --- |
| C=CCn1c(=O)c2cnc(Nc3ccc(N4CCN(C)CC4)cc3)nc2n1-c1cccc(C(C)(C)O)n1 [AZD1775] + C1CN(CCC1(C(=O)N[C@@H](CCO)C2=CC=C(C=C2)Cl)N)C3=NC=NC4=C3C=CN4 [Capivasertib] (first compound max 3 µM, partner max 3 µM) | -0.0772 | 0.52 | 0.668 | 0.91 | 0.506 | 0.727 | 0.322 | 0.821 | 0.442 | 0.954 | 0.828 | 0.736 | 0.939 | 0.87 | 0.668 | 0.543 | 0.47 | 0.736 | 0.813 | – |
| CN(CCO)CC[C@H](CSc1ccccc1)Nc1ccc(S(=O)(=O)NC(=O)c2ccc(N3CCC([C@@H](O)c4ccccc4-c4ccc(Cl)cc4)CC3)cc2)cc1S(=O)(=O)C(F)(F)F [AZD4320] + C1CN(CCC1(C(=O)N[C@@H](CCO)C2=CC=C(C=C2)Cl)N)C3=NC=NC4=C3C=CN4 [Capivasertib] (first compound max 1 µM, 7x7, partner max 3 µM) | -0.0564 | 0.257 | 0.271 | 0.86 | 0.799 | 0.412 | 0.24 | 0.735 | 0.876 | 0.387 | 0.772 | 0.959 | 1 | 0.175 | 0.836 | 0.321 | 0.254 | 0.0692 | 0.0874 | 0.16 |
| CN(CCO)CC[C@H](CSc1ccccc1)Nc1ccc(S(=O)(=O)NC(=O)c2ccc(N3CCC([C@@H](O)c4ccccc4-c4ccc(Cl)cc4)CC3)cc2)cc1S(=O)(=O)C(F)(F)F [AZD4320] + CCN(CCO)CCCOc1ccc2c(Nc3cc(CC(=O)Nc4cccc(F)c4)[nH]n3)ncnc2c1 [AZD2811] (first compound max 1 µM, 7x7, partner max 1 µM) | 0.114 | 0.643 | 0.86 | 0.933 | 0.413 | 0.541 | 0.347 | 0.571 | 0.699 | 0.245 | 0.627 | 0.966 | 1 | 0.3 | 0.715 | 0.241 | 0.319 | 0.177 | 0.506 | 0.351 |
| CN(CCO)CC[C@H](CSc1ccccc1)Nc1ccc(S(=O)(=O)NC(=O)c2ccc(N3CCC([C@@H](O)c4ccccc4-c4ccc(Cl)cc4)CC3)cc2)cc1S(=O)(=O)C(F)(F)F [AZD4320] + C[C@@H]1COCCN1C2=NC(=NC(=C2)C3(CC3)[S@](=N)(=O)C)C4=C5C=CNC5=NC=C4 [AZD6738] (first compound max 1 µM, 7x7, partner max 10 µM) | 0.0653 | 0.787 | 0.525 | 0.981 | 0.474 | 0.896 | 0.621 | 0.872 | 0.852 | 0.765 | 0.829 | 0.98 | 1 | 0.771 | 0.535 | 0.443 | 0.259 | 0.764 | 0.789 | 0.65 |
| CN(CCO)CC[C@H](CSc1ccccc1)Nc1ccc(S(=O)(=O)NC(=O)c2ccc(N3CCC([C@@H](O)c4ccccc4-c4ccc(Cl)cc4)CC3)cc2)cc1S(=O)(=O)C(F)(F)F [AZD4320] + C[C@@H](Nc1cc(F)cc(F)c1)c1cc(C(=O)N(C)C)cc2c(=O)cc(N3CCOCC3)oc12 [AZD8186] (first compound max 1 µM, 7x7, partner max 3 µM) | -0.0046 | 0.681 | 0.375 | 0.962 | 0.453 | 0.877 | 0.438 | 0.812 | 0.966 | 0.455 | 0.764 | 0.96 | 1 | 0.41 | 0.557 | 0.319 | 0.428 | 0.237 | 0.519 | 0.771 |
